Data on nine compounds can be found in article PMC9421654, “Discovery of Substituted Di(pyridin-2-yl)-1,2,4-thiadiazol-5-amines as Novel Macrofilaricidal Compounds for the Treatment of Human Filarial Infections” (Journal of Medicinal Chemistry, 2022).

Converted amounts (≈) assume the structure as drawn. Read-outs that look alike come from different tables or passages of the source.

Series [1] in a line: Kinetic solubility measurement. The format is physicochemical. Particulars: 10 mM DMSO stock solutions. The method, then: Kinetic Solubility Measurement: The standard kinetic solubility assay runs on […] concentration range using 10 mM DMSO stock solutions for plating. Single point calibration assay runs in duplicates. Concentration of standards: […] DMSO solutions prepared by diluting 10 mM stock, solution with DMSO. Concentration of samples: 200 µM, 4 µl 10 mM DMSO stock solution diluted with the appropriate buffer to […]. DMSO content:
2%. Buffers: pH=7.4 (0.1M Potassium phosphate buffer, diluted from Sigma 1M P3619-1GA to 0.1 M with MilliQ water), pH=2.2 (0.1M- NaCl pH adjusted with 0.1N HCL), pH=6.8 (0.1M - KH2PO4/K2HPO4), pH=5 (4 .04g of NaOH (Pellets), 8.65g of Glacial Acetic Acid, 11.874g of NaCl. In in 1 liter water. Adjusted to pH to 5 with either 1N NaOH or 1N HCl). The controls were plated from the standard 10 mM DMSO stock and run on the standard concentration (200µM) range of the assay. Incubation time: 24 hours shaking at […] in Millipore Multiscreen HTS filter plate for Aqueous Solubility Assay (MSSLBPC50), on room temperature.
After incubation time filtration with positive pressure manifold was performed. […]

Series [2] has as its system O. gutturosa adult male worms. The experiment in a line: O. gutturosa adult worm ex vivo assay, MTT/formazan viability. The format is cell-based, Onchocerca gutturosa. Particulars: supplement, SD in brackets in the PDF table, read-out: O. gutturosa EC50 (uM) MTT viability inhibition. As for the experimental part: (§1) Activity against O. gutturosa adult male worms was determined using reported procedures.[7] The EC50 values were calculated using Microsoft Office Excel (2010) data analysis software. The tested compound is considered active when a motility reduction of ≥50% is observed by comparison to the untreated controls. O. gutturosa adult male worms were obtained postmortem from freshly slaughtered cattle. The worms were dissected from the nuchal ligament connective tissues of naturally infected cattle in Gambia, West Africa; the material was purchased from the International Trypanotolerance Centre, Banjul, from local butchers for use in this study. The adult worms were transferred individually to each well of a sterile 24-well (2 mL) plate (Thermo Fisher Scientific, UK) and maintained for at least 24 h in culture before use. The medium used was a minimum essential medium (MEM) with Earl’s salts and L-glutamine (Life Technologies Ltd., UK) supplemented with 10% heat inactivated newborn calf serum (Life Technologies Ltd., UK), 200 units/mL penicillin, 200 μg/mL streptomycin, and 0.5 μg/mL amphotericin B (Life Technologies Ltd., UK). Only normally active worms were used for the test, and all assays were conducted at 37 °C and 5% CO2. The positive control drug used was Immiticide (melarsomine dihydrochloride, Merial, USA). Known amounts of compounds were solubilized in 1 mL of DMSO. All stock solutions were allowed to stand at room temperature prior to use. The test items (four worms/drug concentration) were compared to untreated controls (six worms) and the positive control (two worms/drug concentration). Drug efficacy was assessed by the measurement of mean worm motility scores on a scale of 0 (immotile) to 10 (maximum) every 24 h, terminating at 120 h, using an Olympus inverted microscope. The results are reported as a percentage of the maximum score obtainable (100%) by calculating the motility index scores. The test drug is considered active when a motility reduction of ≥50% is observed by comparison to the untreated controls. […] In addition, biochemical evaluation of worm viability was assessed using MTT/formazan colorimetry. The MTT assay was carried out after the last motility reading (120 h). Single intact worms were placed in each well of a 48-well plate (Thermo Fisher Scientific, UK) containing 0.5 mL of 0.5 mg/mL MTT (Sigma, UK) in PBS solution and then incubated for 30 min at 37 °C. The worms were removed, blotted carefully, and individually transferred to separate wells of a 96-well microtiter plate, each containing 200 μL of DMSO to solubilize the formazan. After 1 h, the plate was gently agitated to disperse the color evenly and the absorbance value (optical density, OD) of the resulting formazan solution was determined at 490 nm using an absorbance microplate reader (Biotek ELx800, Thermo Fisher Scientific, UK). The results are expressed as the mean OD per drug concentration. Inhibition of formazan formation is correlated with worm damage or death.

Series [3] in a line: LogD measurement (octanol-water). The format is physicochemical. The method, then:
LogD Measurement: Measurement of octanol-water distribution coefficient of samples using a […]
stock solutions for plating. Aqueous Phase: 100mM Buffer, pH=7.4 (0.1M Potassium phosphate buffer, diluted from Sigma 1M P3619-1GA to 0.1 M with MilliQ water), pH=2.2 (0.1M- NaCl pH adjusted with 0.1N HCL), pH=6.8 (0.1M - KH2PO4/K2HPO4), pH=5 (4 .04g of NaOH (Pellets), 8.65g of Glacial Acetic Acid, 11.874g of NaCl. In in 1 liter water. Adjusted to pH to 5 with either 1N NaOH or 1N HCl); Organic Phase: 1-Octanol (O021). Sample Concentration:
1000uM, […] 10 mM DMSO stock solution diluted in […] of organic Phase and […] of aqueous Phase. DMSO content: 10%. The controls were plated from the standard 10 mM DMSO stock and run on the standard concentration ([…]) range of the assay. Incubation time:
Sonication for 30 minutes followed by 24 hours shaking at 750 rpm in 96 deep well plate (VWR

A short description of series [4]: Liver S9 metabolic stability assay, human. The format is in vitro ADME. The note with it: 3 μM, 60 min. The method, then: (§2) Liver S9 Metabolic Stability Assay: Incubations were performed at 37 °C in a Dubnoff Shaking water bath using 2 mL 96-well incubation plates. Rat and human S9 protein concentrations were 0.75 mg/ml and 1.2 mg/ml, respectively. The final concentrations of NADPH, UDPGA, and GSH were 1, 0.5, and 2.5 mM, and the final concentration of PAPS was 0.05 mg/ml. Substrate concentrations were 3µM, incubation time was 60 minutes, and all tests were done in triplicate. The incubation was conducted in 200 mM Tris buffer containing 2 mM magnesium chloride, pH=7.4 and the total incubation volume was 0.5 ml. Samples were analysed via LC-MS/MS and reported as percentage remaining after incubation for 60 minutes. […]

In series [5] the test system is O. gutturosa adult male worms. The experiment in a line: O. gutturosa adult worm ex vivo assay, motility. Format: cell-based, Onchocerca gutturosa. As for the experimental part: as §1
Data S1. Onchocerca gutturosa adult male worms EC 50 Curves
Plotted using Graph Pad Prism 7.03, least square original fit, sigmoidal, 4PL
The measurement of mean worm motility every 24 h, terminating at 120 h, serial 1 in 4 drug dilutions to find
activity endpoint and produce EC50 values (geomean, n=2) for motility reduction. (4 worms per drug […]

Series [6] is described as follows: Liver S9 metabolic stability assay, rat. The format is in vitro ADME. Particulars: 3 μM, 60 min. The method, then: as §2
The mark [7] stands for this setting: supplement, read-out: measured logD.
[8] abbreviates: Onchocerca gutturosa, read-out: O. gutturosa EC50 μM (SD), ex vivo adult worm motility reduction, SD in brackets.
The mark [9] stands for this setting: Onchocerca gutturosa, read-out: O. gutturosa EC50 (uM) motility inhibition, supplement, SD in brackets in the PDF table.

For `COc1cccnc1Nc1nc(-c2cc(C)ccn2)ns1` [Compound 29, N-(3-Methoxy-2-pyridyl)-3-(4-methyl-2-pyridyl)-1,2,4-thiadiazol-5-amine], the kinetic solubility at 24 h in series [1] was 26.5 µM (≈ 7.93 µg/mL). Besides, the 50% effective concentration (EC50) was determined as 0.88 µM in series [2] (Onchocerca gutturosa), 0.12 µM in series [5] (setting [8]) and 0.121 µM in series [5] (setting [9]). The logD at 24 h in series [3] (pH 7.4, read-out: logD) worked out at 2.1; in series [3] (setting [7]), 2.1. Further, the “Human S9 metabolic stability” value in series [4] is 72 % remaining. Further, in series [6], the “Rat S9 metabolic stability” value is 70 % remaining.
In the case of `CC(C)Oc1cc(-c2nsc(Nc3ncccc3N(C)C)n2)ncc1C(F)(F)F` [Compound 33], in series [1], the solubility (kinetic) at 24 h was 1.43 µM (≈ 0.607 µg/mL). Also, the EC50 in series [2] (Onchocerca gutturosa) was found to be 0.83 µM; in series [5] (setting [8]) it was 0.85 µM; in series [5] (setting [9]), 0.852 µM. Also, the logD at 24 h came to 3 in series [3] (pH 7.4, read-out: logD) and 3 in series [3] (setting [7]). The “Human S9 metabolic stability” value in series [4] was 100 % remaining. For the same compound, the “Rat S9 metabolic stability” value in series [6] came to 8 % remaining.
In turn, `CC(C)Oc1ccc(-c2nsc(Nc3cc(C(F)(F)F)c(C(C)C)cn3)n2)nc1` [Compound 37] yielded a solubility (kinetic) at 24 h in series [1] of 1.00 µM (≈ 0.423 µg/mL). Besides, the EC50 in series [2] (Onchocerca gutturosa) was found to be 0.3 µM; in series [5] (setting [8]), 0.05 µM; in series [5] (setting [9]) it was 0.053 µM. Further, the logD at 24 h in series [3] (pH 7.4, read-out: logD) was 2.8; in series [3] (setting [7]), 2.8. Besides, the “Human S9 metabolic stability” value in series [4] worked out at 100 % remaining. In addition, the “Rat S9 metabolic stability” value in series [6] is recorded as 100 % remaining.
As to `CC(C)c1cnc(Nc2nc(-c3ncccc3OC3CC3)ns2)cc1C(F)(F)F` [Compound 38, 3-(3-Cyclopropoxypyridin-2-yl)-N-(5-isopropyl-4-(trifluoromethyl)pyridin-2-yl)-1,2,4-thiadiazol-5-amine], the solubility (kinetic) at 24 h in series [1] was determined as 1.03 µM (≈ 0.434 µg/mL). The EC50 is below 0.02 µM in series [2] (Onchocerca gutturosa), below 0.015 µM in series [2], 0.02 µM in series [5] (setting [8]) and 0.017 µM in series [5] (setting [9]). Further, the logD at 24 h in series [3] (pH 7.4, read-out: logD) was determined as 2.95; in series [3] (setting [7]), 2.95. Moreover, the “Human S9 metabolic stability” value in series [4] is given as 100 % remaining. For the same compound, in series [6], the “Rat S9 metabolic stability” value stood at 93 % remaining.
With `Cc1cccnc1Nc1nc(-c2cnc(OC(C)C)cn2)ns1` [Compound 39, 3-(5-Isopropoxypyrazin-2-yl)-N-(3-methyl-2-pyridyl)-1,2,4-thiadiazol-5-amine], the kinetic solubility at 24 h in series [1] is 2.1 µM (≈ 0.69 µg/mL). In addition, the EC50 amounted to 1.1 µM in series [2] (Onchocerca gutturosa), 0.29 µM in series [5] (setting [8]) and 0.286 µM in series [5] (setting [9]). Besides, the pH-dependent lipophilicity (logD) at 24 h in series [3] (pH 7.4, read-out: logD) came to 3.1; in series [3] (setting [7]) it was 3.1. In addition, the “Human S9 metabolic stability” value in series [4] is given as 81 % remaining. Moreover, the “Rat S9 metabolic stability” value in series [6] was 74 % remaining.
Take `Cc1nccnc1Nc1nc(-c2ccc(OC(C)C)cn2)ns1` [Compound 41, 3-(5-Isopropoxy-2-pyridyl)-N-(3-methylpyrazin-2-yl)-1,2,4-thiadiazol-5-amine]: the kinetic solubility at 24 h in series [1] worked out at 24.5 µM (≈ 8.04 µg/mL). Also, the concentration for a half-maximal effect (EC50) was below 0.19 µM in series [2] (Onchocerca gutturosa), 0.06 µM in series [5] (setting [8]) and 0.058 µM in series [5] (setting [9]). Further, the logD at 24 h in series [3] (pH 7.4, read-out: logD) was 2.7; in series [3] (setting [7]), 2.7. Besides, the “Human S9 metabolic stability” value in series [4] stood at 94 % remaining. Also, the “Rat S9 metabolic stability” value in series [6] is reported as 100 % remaining.
Compound `Cc1cccnc1N(C)c1nc(-c2ccc(OC(C)C)cn2)ns1` [Compound 42, 3-(5-Isopropoxypyridin-2-yl)-N-methyl-N-(3-methylpyridin-2-yl)-1,2,4-thiadiazol-5-amine] had a solubility (kinetic) at 24 h in series [1] of 33.5 µM (≈ 11.4 µg/mL). The EC50 came to 0.36 µM in series [2] (Onchocerca gutturosa); 0.357 µM in series [2]; 0.2 µM in series [5] (setting [8]); 0.21 µM in series [5] (setting [9]); 0.212 µM in series [5] (read-out: O. gutturosa EC50 (uM) motility inhibition, supplement, SD in brackets in the PDF table). In addition, the log distribution coefficient (logD) at 24 h came out at 2.35 in series [3] (pH 7.4, read-out: logD) and 2.35 in series [3] (setting [7]). For the same compound, the “Human S9 metabolic stability” value in series [4] was 96 % remaining. Besides, the “Rat S9 metabolic stability” value in series [6] worked out at 81 % remaining.
Compound `Cc1cccnc1N(c1nc(-c2ccc(OC(C)C)cn2)ns1)C(C)C` [Compound 43, 3-(5-Isopropoxypyridin-2-yl)-N-isopropyl-N-(3-methylpyridin-2-yl)-1,2,4-thiadiazol-5-amine] displayed a kinetic solubility at 24 h in series [1] of 118 µM (≈ 43.6 µg/mL). Besides, the EC50 was determined as 3.4 µM in series [2] (Onchocerca gutturosa) and 3.3 µM in series [5] (setting [8]). Besides, the logD at 24 h in series [3] (pH 7.4, read-out: logD) was 3.1; in series [3] (setting [7]), 3.1. Also, the “Human S9 metabolic stability” value in series [4] was found to be 79 % remaining. Moreover, in series [6], the “Rat S9 metabolic stability” value turned out to be 60 % remaining.
Compound `CC(C)Oc1ccc(-c2nsc(N(C)c3ncccc3C(C)C)n2)nc1` [Compound 44, 3-(5-Isopropoxypyridin-2-yl)-N-(3-isopropylpyridin-2-yl)-N-methyl-1,2,4-thiadiazol-5-amine] came in with a kinetic solubility at 24 h in series [1] of 121 µM (≈ 44.7 µg/mL). Moreover, the half-maximal effective concentration (EC50) in series [2] (Onchocerca gutturosa) turned out to be 1.4 µM; in series [5] (setting [8]), 1.67 µM. For the same compound, the logD at 24 h in series [3] (pH 7.4, read-out: logD) is 3; in series [3] (setting [7]) it was 3. In addition, the “Human S9 metabolic stability” value in series [4] came to 32 % remaining. Moreover, in series [6], the “Rat S9 metabolic stability” value is 4 % remaining.
